Like-named read-outs stand apart in the source and are kept apart here.
Columns and labels:
[1] = tested on: 3D7-strain P. falciparum asexual parasites; assay: P. falciparum asexual growth inhibition assay (Pf GIA); format: cell-based, Plasmodium falciparum; details: dose response confirmation; read-out: Pf asexual growth inhibition assays IC50
Procedure, shortened: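 Parasites at 0.25% parasitemia, 2% hematocrit in Albumax-supplemented RPMI were exposed to compounds in dose response for 72 h at 37°C under 5% CO2/5% O2. Viability was read as LDH activity (NBT/diaphorase, A650 after freeze-thaw). Percent inhibition was calculated against chloroquine and DMSO controls, mean of three biological replicates.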

HepG2 cells = assay: HepG2 cytotoxicity assay; details: for Pb ODA (this manuscript) HepG2 cytoxicity: HepG2 cytotoxicity listed with the Pb ODA data set (this manuscript); for IC50: read-out: HepG2 cytotoxicity assay IC50, dose response confirmation
Procedure, shortened: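 Cells at 2,500 per well in MEM with 10% fetal bovine serum and 1% NEAA were exposed to test compounds for 48 h at 37°C, 5% CO2. Viability was read by fluorescence, with percent inhibition calculated against 50 μM doxorubicin (positive) and DMSO (negative) controls.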

[2] = tested on: P. berghei ookinete development; details: for % inhibition, Replicate A / % inhibition, Replicate B: primary screen at 1 μM
[3] = read-out: Pb ODA (this manuscript) IC50, P. berghei ookinete development assay, this manuscript
[4] = read-out: Pb Ookinete development assay IC50, dose response confirmation
[5] = unified HepG2 value across the three screens
[6] = read-out: Pb ODA IC50, this manuscript
[7] = HepG2 values of the three screens unified

SMILES	IC50 [1] [nM]	Pb ODA (this manuscript) HepG2 cytoxicity (HepG2 cells) [µM]	IC50 (HepG2 cells) [nM]	Is compound selective in assay? Pb ODA active? [2]	% inhibition, Replicate A [2] [%]	% inhibition, Replicate B [2] [%]	IC50 [2, 3] [nM]	IC50 [2, 4] [nM]	Unified cytotox (HepG2 cells; [5]) [µM]	Is compound selective in assay? Pb ODA active? ([2]; 1: YES, 0: NO)	IC50 [2, 6] [nM]	Unified cytotox (HepG2 cells; [7]) [µM]
CC1(C)NC(N)=NC(=N)N1OCOc1ccc(Cl)cc1.Cl [TCMDC-131734]	< 0.2	0.0759	75.9	0 (key: 1: YES; 0: NO)	89.86	40.05	2620	2620	–	–	–	–
Br.CC1(C)NC(N)=NC(=N)N1OCCCOc1ccccc1Cl [TCMDC-131739]	< 0.2	0.001	1	0 (key: 1: YES; 0: NO)	73.15	48.60	3130	3130	–	–	–	–
CCOC(=O)NC1=NC(=N)N(OCCCOc2cc(Cl)c(Cl)cc2Cl)C(C)(C)N1 [TCMDC-131741]	< 0.2	0.001	1	0 (key: 1: YES; 0: NO)	60.63	47.57	5080	5080	–	–	–	–
Br.CC(C)(C)c1ccccc1OCCCON1C(=N)N=C(N)NC1(C)C [TCMDC-131751]	< 0.2	0.001	1	0 (key: 1: YES; 0: NO)	62.16	60.88	3070	3070	–	–	–	–
Br.CC1(C)NC(N)=NC(=N)N1OCCCOc1cccc(Cl)c1 [TCMDC-131762]	< 0.2	0.001	1	0 (key: 1: YES; 0: NO)	47.79	53.67	2100	2100	–	–	–	–
CC[C@H]1CN2CCc3cc(OC)c(OC)cc3[C@@H]2C[C@@H]1C[C@H]1NCCc2c1cc(OC)c(O)c2Cl [TCMDC-131802]	156	4.52	4520	1 (key: 1: YES; 0: NO)	61.67	93.54	270	268	–	–	–	–
Br.CC[C@H]1CN2CCc3cc(OC)c(OC)cc3[C@@H]2C[C@@H]1C[C@H]1NCCc2c1cc(OC)c(O)c2I [TCMDC-131829]	98	5.43	5430	1 (key: 1: YES; 0: NO)	45.92	90.22	410	412	–	–	–	–
CC[C@@]1(O)C(=O)OCc2c1cc1n(c2=O)Cc2c-1nc1cc3c(cc1c2CN1CCN(C)CC1)OCCO3.Cl [TCMDC-131875]	204	–	1260	–	61.11	69.44	–	2370	1.26	0 (0: NO)	2370	–
CC[C@@]1(O)C(=O)OCc2c1cc1n(c2=O)Cc2c-1nc1cc3c(cc1c2CN1CCOCC1)OCO3.O=C(O)C(F)(F)F [TCMDC-131876]	7	–	470	–	79.37	70.89	–	1250	0.47	0 (0: NO)	1250	–
Nc1nc(N)c2c(ccc3c2cnn3Cc2cccnc2)n1 [TCMDC-131932]	1.3	0.055	55	0 (key: 1: YES; 0: NO)	68.89	58.00	2390	2390	–	–	–	–
CN(C)S(=O)(=O)n1ncc2c3c(N)nc(N)nc3ccc21.Cl [TCMDC-131933]	23	0.001	1	0 (key: 1: YES; 0: NO)	39.05	54.28	540	539	–	–	–	–
COc1ccc(Cn2ncc3c4c(N)nc(N)nc4ccc32)cc1OC [TCMDC-131934]	58	0.00214	2.14	0 (key: 1: YES; 0: NO)	44.86	51.03	1530	1530	–	–	–	–
CCCCCCCc1cc(=O)c2ccccc2[nH]1 [TCMDC-132026]	458	20.65	20600	1 (key: 1: YES; 0: NO)	86.88	74.93	1140	1140	–	–	–	–
Nc1c2ccccc2nc2ccc(Cl)cc12 [TCMDC-132029]	324	–	13500	–	75.70	81.80	–	1460	13.49	0 (0: NO)	1460	–
COc1ccc2c(=O)c3ccc(OC)cc3[nH]c2c1 [TCMDC-132054]	2420	100.00	100000	1 (key: 1: YES; 0: NO)	107.15	103.78	580	575	–	–	–	–
COc1ccc(C23Oc4cc(OC)cc(OC)c4C2(O)C2(CC3c3ccccc3)SCCCS2)cc1 (centres unmarked) [TCMDC-132098]	712	–	100000	–	104.91	114.13	–	401	100.00	1 (1: YES)	400	–
COc1ccc(-c2ccc([N+](=O)[O-])cc2C(=O)NCC(C)Oc2ccc(C(F)(F)F)cc2)cc1 (centres unmarked) [TCMDC-132304]	520	–	100000	–	29.22	50.52	–	4010	100.00	1 (1: YES)	4010	–
Cc1[nH]c(C)c(-c2ccc(-c3ccc(OCC(F)(F)F)cc3)nc2)c(=O)c1Cl [TCMDC-132306]	655	–	100000	–	58.32	97.73	–	1240	–	1 (1: YES)	1240	100.00
Cc1[nH]c(C)c(-c2ccc(-c3ccc(C(F)F)cc3)nc2)c(=O)c1Cl [TCMDC-132329]	1440	–	100000	–	72.54	35.56	–	7800	–	1 (1: YES)	7800	100.00
